Literature values, collected in publication PMC3378994 (Bioorganic & medicinal chemistry letters, 2012).

Molecular target: DAT (Rattus norvegicus, UniProt P23977)
Sequence (P23977 whole entry): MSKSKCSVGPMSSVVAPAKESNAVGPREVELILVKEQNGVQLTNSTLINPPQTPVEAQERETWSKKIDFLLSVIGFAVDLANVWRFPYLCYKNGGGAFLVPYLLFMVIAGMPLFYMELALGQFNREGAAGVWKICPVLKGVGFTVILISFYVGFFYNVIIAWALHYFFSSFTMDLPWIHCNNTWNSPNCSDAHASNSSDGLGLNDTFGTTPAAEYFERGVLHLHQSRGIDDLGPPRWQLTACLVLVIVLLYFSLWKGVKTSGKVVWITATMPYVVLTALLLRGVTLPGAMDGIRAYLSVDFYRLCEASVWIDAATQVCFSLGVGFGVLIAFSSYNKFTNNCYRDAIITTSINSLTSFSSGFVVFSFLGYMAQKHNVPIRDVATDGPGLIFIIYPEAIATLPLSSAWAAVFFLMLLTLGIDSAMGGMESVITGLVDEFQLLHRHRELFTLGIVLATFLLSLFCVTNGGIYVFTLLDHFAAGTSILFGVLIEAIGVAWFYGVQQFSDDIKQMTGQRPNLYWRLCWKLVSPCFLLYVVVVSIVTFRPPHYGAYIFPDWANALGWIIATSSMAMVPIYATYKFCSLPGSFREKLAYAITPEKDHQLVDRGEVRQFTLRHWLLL

Structure (SMILES): Cc1ccc([C@H]2C[C@@H]3CC[C@H]([C@H]2C(=O)OCC[18F])N3C/C=C/I)cc1 [[^18F]FE-PE2I]
- Fold lower affinity to other monoamine transporters than to DAT: more than 50 fold
